Source: patent US6472383B1, “Pharmaceutical formulations” (priority 1994, dated 2002)
Values joined by “and” are separate entries in the source; they are usually repeats but may differ in a detail not shown here. Equal entries are not always repeated. Structures can show the parent of a compound that is named as a salt.

Assays:
[1] = tested on: Ent. cloacae P99; assay: in-vitro MIC of amoxycillin alone and with Example 1; assay type: cell-based; conditions: alone; β-lactamase 1 (high constitutive expression)
[2] = tested on: JT4; assay: as above; assay type: cell-based, P. coli; conditions: alone; β-lactamase 2b (high expression)
[3] = tested on: P. vulgaris C; assay: as above; assay type: cell-based; conditions: alone; β-lactamase 2e
[4] = tested on: E. coli P91; assay: as above; assay type: cell-based; conditions: alone; β-lactamase 2d
[5] = tested on: S. aureus Russell; assay: as above; assay type: cell-based; conditions: alone; β-lactamase 2a
[6] = tested on: E. coli JT39; assay: as above; assay type: cell-based; conditions: alone; β-lactamase 2b (low expression)
[7] = tested on: Ent. cloacae N1; assay: as above; assay type: cell-based; conditions: alone; β-lactamase 1 (inducible expression)
[8] = tested on: P. mirabilis C889; assay: as above; assay type: cell-based; conditions: alone; β-lactamase 2c
[9] = tested on: TEM-3 producing strain of K.pneumoniae; assay: MIC of cefotaxime, titration with Example 1; assay type: cell-based; conditions: K.pneumoniae TEM-3
Method: (§1) The in-vitro synergistic activity of the compound of Example 1 above (i.e sodium (5R)-6-[(Z)-(2,3-dihydroimidazo[2,1-b]thiazol- 6-yl)methylene]penem-3-carboxylate) with cefotaxime was investigated.
The MIC (inimum inhibitory concentration) of cefotaxime against one TEM-3 producing strain of K.pneumoniae was measured.

[10] = tested on: Enterobacter cloacae (4593) producing high levels of derepressed class (AmpC) β-lactamase; assay: mouse intraperitoneal infection, cefotaxime CD50; assay type: in vivo, mice
Method: (§2) In these studies, mice were infected intraperitoneally with a lethal challenge inoculum of strains of either Klebsiella pneumoniae (520), producing extended-spectrum TEM type ββ-lactamase, (TEM-3) or Enterobacter cloacae (4593) producing high levels of derepressed class (AmpC) ββ-lactamase. Virulence of all strains was enhanced by suspending the bacteria in hog gastric mucin prior to infection.
(§3) Mice were dosed subcutaneously at 1 and 5 hours post-infection, with either cefotaxime alone or coadministered with the ββ-lactamase inhibitor at 1 mg/kg or 5 mg/kg.
(§4) 1 CD50 (dose protecting 50% of animals from lethal infection) calculated from groups of 5 animals per test, subjected to a range of 4 dose levels (4-fold serial dilutions)
(§5) Efficacy was assessed by the number of animal surviving at 4 days after infection, and the total dose that protected 50% of treated animals (CD50 value) was calculated.

[11] = tested on: Klebsiella pneumoniae (520), producing TEM-3 β-lactamase; assay: mouse intraperitoneal infection, cefotaxime CD50; assay type: in vivo, mice
Method: as §2, §3, §4, §5

[12] = tested on: Escherichia coli (E96), producing TEM-1 β-lactamase; assay: mouse intraperitoneal infection, amoxycillin CD50; assay type: in vivo, mice; conditions: coadministration with Example 1 versus amoxycillin alone
Method: In these studies, mice were infected intrapenitoneally with a lethal challenge inoculum of strains of Escherichia coli (E96), producing TEM-1 ββ-lactamase, for tests to protect amoxycillin. Virulence of all strains was enhanced by suspending the bacteria in hog gastric mucin prior to infection.
Mice were dosed subcutaneously at 1 and 5 hours post-infection, with either amoxycillin alone or coadministered with the ββ-lactamase inhibitor at 2 mg/kg.
as §5

[13] = tested on: E. cloacae; assay: in vitro selection of ceftazidime-resistant cells in a growing population; assay type: cell-based
[14] = tested on: strain of Enterobacter producing extended spectrum β-lactamase enzymes; assay: in-vitro MIC of ceftazidime alone and with Example 1; assay type: cell-based; conditions: Enterobacter ESBL strain
Source text: (§6) The in-vitro synergistic activity of the compound of Example 1 above (i.e sodium (5R)-6-[(Z)-(2,3-dihydroimidazo[2,1-b]thiazol-6-yl) methylene]penem-3-carboxylate) with ceftazidime was investigated.

[15] = tested on: B. fragilis; assay: as above; assay type: cell-based
Source text: as §6

[16] = tested on: strains of Enterobacteriaceae producing extended spectrum β-lactamases; assay: in-vitro synergy with cefotaxime; assay type: cell-based; conditions: 1 μg/ml Example 1
Source text: as §1

[17] = tested on: B. fragilis; assay: in-vitro synergy with cefotaxime; assay type: cell-based; conditions: 1 μg/ml Example 1
Source text: as §1

[18] = serum half life; conditions: in vivo
[19] = tested on: strain of Ent.cloacae producing high levels of Class 1 β-lactamases constitutively; assay: MIC of cefotaxime, titration with Example 1; assay type: cell-based; conditions: in presence of 1 μg/ml Example 1; Ent.cloacae high Class 1
[20] = in presence of 1 μg/ml Example 1

CC1(C)S[C@@H]2[C@H](NC(=O)[C@H](N)c3ccc(O)cc3)C(=O)N2[C@H]1C(=O)O [Amoxycillin, 6-[D(−)-α-amino-p-hydroxypheny-acetamido]penicillanic acid]
Amoxycillin MIC [1]: > 256 µg/mL
Amoxycillin MIC [2]: > 256 µg/mL
Amoxycillin MIC [3]: 32 µg/mL
Amoxycillin MIC [4]: > 256 µg/mL
Amoxycillin MIC [5]: 128 µg/mL
Amoxycillin MIC [6]: > 256 µg/mL
Amoxycillin MIC [7]: > 256 µg/mL
Amoxycillin MIC [8]: > 256 µg/mL

CO/N=C(\C(=O)N[C@@H]1C(=O)N2C(C(=O)O)=C(COC(C)=O)CS[C@H]12)c1csc(N)n1 [Cefotaxime]
MIC ([9]; Klebsiella pneumoniae, in the absence of Example 1): 64 µg/mL
Cefotaxime CD50 ([10]; cefotaxime alone, s.c. at 1 and 5 h post-infection, E. cloacae 4593): 240 mg/kg and 400 mg/kg
Cefotaxime CD50 ([11]; cefotaxime alone, s.c. at 1 and 5 h post-infection, K. pneumoniae): 54 mg/kg and 42 mg/kg

O=C([O-])C1=CS[C@@H]2/C(=C\c3cn4c(n3)SCC4)C(=O)N12.[Na+] [Example 1, Sodium (5R)-6-[(Z)-(2,3-Dihydroimidazo[2,1-b]thiazol-6-yl) Methylene]-penem-3-carboxylate]
effectiveness of amoxycillin in protecting animals [12]: markedly more effective
rate of emergence of resistant isolates ([13]; ceftazidime at 0.5 MIC plus Example 1): reduced the rate of emergence of resistant isolates dramatically
final level of resistance ([13]; combination of ceftazidime and Example 1 versus ceftazidime alone): much lower than that observed with ceftazidime alone
MIC of ceftazidime [14, 20]: around 2 μg/ml
MIC of ceftazidime [15, 20]: around 4 μg/ml
MIC of cefotaxime ([9]; Example 1 at concentrations as low as 0.25 μg/ml): below 1 μg/ml
protection of infected animals ([10]; cefotaxime plus Example 1 compared with cefotaxime alone, E. cloacae (4593)): consistent protection
protection of infected animals ([11]; cefotaxime plus Example 1 compared with cefotaxime alone, K.pneumoniae (520)): consistent protection
synergy with cefotaxime [16]: Effective synergy
synergy with cefotaxime [17]: Effective synergy
serum half life [18]: advantageously long
cefotaxime MIC [19]: below 1 μg/ml

CC(C)(O/N=C(\C(=O)N[C@@H]1C(=O)N2C(C(=O)[O-])=C(C[n+]3ccccc3)CS[C@H]12)c1csc(N)n1)C(=O)O [ceftazidime, [6R -[6α,7β(Z)]]-1-[[7-[[(2-amino-4-thiazolyl)[(1-carboxy-1-methylethoxy)imino]acetyl]amino]-2-carboxy-8-oxo-5-thia-1-azabicyclo[4.2.0]oct-2-en-3-yl]methyl]pyridinium hydroxide inner salt]
selection of cells showing high-level resistance to ceftazidime ([13]; ceftazidime alone at 0.5 MIC): rapidly selected
MIC ([14]; ceftazidime alone): ~7 µg/mL
MIC ([15]; Bacteroides fragilis, ceftazidime alone): ~7 µg/mL
